From US20250320253A1, “TRANSMEMBRANE PEPTIDIC ANTAGONISTS OF PLEXIN-A1 AND THEIR THERAPEUTIC USES” (UNIVERSITE DE STRASBOURG, priority 2021, published 2025)
“Also recorded” adds a separate entry of the source. Ends that are not written are not given here.

B1: GUNGNIR (peptide)
peptide: TLPAITGLVGGVGLLLEVIVEVAYEEEEE
B2: MIMMING (peptide)
peptide: TLPAIVSIGGGVVLLLEVIVEVAYEEEEE
B3: SURTR (peptide)
peptide: TLPVIGVIVLVGSAVLELIAEGVYEEEEE

What was measured:
[1] = MTP solubility in PBS and PBS/LDS; type: physicochemical
Description: The solubility of the MTPs was tested either in phosphate buffered saline (PBS) or in a mixture of PBS and lithium dodecyl sulfate (LDS).

[2] = molecular target: T1, NRP1-PlexinA1 interaction (Mus musculus, UniProt P70206); test: Proximity ligation assay of Neuropilin-1/Plexin-A1 receptor dimers in Oli-neu cells; type: cell-based; conditions: for Normalized interactions Nrp1-PlexinA1/cell: Oli-neu cells treated with peptides at 10^−7 M, vehicle 100; for reduction of the number of NRP1/PlexinA1 interactions: 10^−7 M
T1 construct: endogenous in cells; host or cells: Oli-neu cells
Description: After fixation with 1% PFA for 10 min, slices were permeabilized with PBS/0.1% Triton X-100. Primary antibodies (NRP1 from Evitria, 1:500; and Plexin-A1 from Abcam, ab23391, 1:200) were incubated overnight at 4° C. in PBS. The proximity ligation assay allowing to visualize receptor dimers (Neuropilin-1/Plexin-A1) was then performed according to the manufacturer's recommendations with the “detection orange” kit (Sigma). Quantification of the interactions (fluorescent dots at the cell surface) was performed using ImageJ software.

[3] = test system: cuprizone-induced demyelination; conditions: mouse, in vivo
Description: It was next assessed whether […] can induce remyelination of the CNS and motor function recovery following demyelination induced by cuprizone, a copper-chelating agent, in a mouse model. Oral intoxication with cuprizone induces oligodendrocyte apoptosis within a few days, which is closely followed by the activation of the innate immune cells in the brain, i.e., astrocytes and microglia, finally leading to demyelination of distinct white and grey matter brain areas. […] (10 μg/kg) for 6 consecutive days (n=10) • (e) 5 weeks cuprizone, followed by treatment with […] (100 μg/kg) for 6 consecutive days (n=10) • (f) 5 weeks cuprizone, followed by treatment with vehicle for 11 consecutive days (n=10) • (g) 5 weeks cuprizone, followed by treatment with […] (10 μg/kg) for 11 consecutive days (n=10) • (h) 5 weeks cuprizone, followed by treatment with […] (100 μg/kg) for 11 consecutive days (n=10) Acute demyelination was induced by intoxicating for five consecutive weeks 8-week-old (19-21 g) male mice a diet containing 0.25% cuprizone [bis(cyclohexanone)oxaldihydrazone; Sigma-Aldrich Inc., St Louis, MO, USA] mixed into a ground standard rodent chow. […]

[4] = test system: oligodendrocyte cell line Oli-neu; test: Cell migration assay (Transwell CIM-Plate, xCELLigence), rescue of Sema3A negative effect; type: cell-based; conditions: 20 ng/ml Sema3A
Description: Cells were pre-incubated 1 h with vehicle alone or MTP. The 1×10^5 cells were seeded in the upper chamber with 150 μl of medium. The bottom well contained 160 μl of medium supplemented with 2% fetal bovine serum for chemoattraction and 20 ng/ml Sema3A (Recombinant Mouse Semaphorin 3A Fc Chimera Protein Carrier Free ref: 5926-S3/CF; RnD Systems) for repulsion. Analysis was performed after 8 h of migration according to the manufacturer's instructions. Data are expressed as a percentage of positive control migration, i.e. the migration of Oli-neu with 2% serum and without Sema3A.

[5] = molecular target: Plexin-A1 (on Oli-neu cells) (UniProt P70206); test: proximity ligation assay on Oli-neu cells, peptide at 10^-7 M for 1 h; NRP1/Plexin-A1 dimers counted
[6] = molecular target: Plexin-A1 (on Oli-neu cells) (UniProt P70206); test: proximity ligation assay on Oli-neu cells, dose response; inhibition of NRP1/Plexin-A1 interactions
[7] = Solubilization vehicle PBS 100%

Molecule	Measured concentration [1, 7] [µM]	Normalized interactions Nrp1-PlexinA1/cell [2]	Normalized interactions Nrp1-PlexinA1/cell (normalized to vehicle = 100) [5]	further results
TLPAIVGIGGGGGELLLVIVEVLIYEEEEE [RATI]	224	–	–	–
TLPAIGVITLVGLGVLELVAEGVYEEEEE [HODR, reference compound]	189	–	–	–
TLPVIGVIVLVGSAVLELIAEGVYEEEEE [SURTR, reference compound]	–	96.8	–	–
TLPAIVGIGGGGGLLLLVIVAVLIAYKRK [MTP-PlexA1, reference compound]	0	–	–	Measured concentration ([1]; Solubilization vehicle PBS 100% LDS 72 mM): 360 µM
TLPAITGLVGGVGLLLEVIVEVAYEEEEE [GUNGNIR]	248	40.4	–	body weight [3]: no differences were observed; percentage loss of body weight relative to vehicle-treated groups [3]: significantly less pronounced; IC50 ([4]; n=3): 1.2 nM; reduction of the number of NRP1/PlexinA1 interactions ([2]; Oli-neu cells): −60%
TLPAIVGIGGGGGLLLEVIVEVLIAYEEEEE [DRAUPNIR]	260	–	–	–
TLPAIVSIGGGVVLLLEVIVEVAYEEEEE [MIMMING]	–	49.4	–	rescue of Sema3A negative effect on migration ([4]; 8 h of migration): able to counteract; also recorded: rescue migration; reduction of the number of NRP1/PlexinA1 interactions ([2]; Oli-neu cells): −51%; IC50 ([2]; Oli-neu cells, dose response, read-out: IC50, number of NRP1/PlexinA1 interactions): 17 nM
B1	–	–	40.4	IC50 [6]: 0.074 nM
B2	–	–	49.4	–
B3	–	–	96.8	–
